Patent US9776965B2, “Pyrrolidin-2-one and piperidin-2-one derivatives as 11-beta hydroxysteroid dehydrogenase inhibitors” (Janssen Pharmaceutica N.V., priority 2004, dated 2017)
pIC50: −log10 of the molar value.

Legend:
11b-HSD1 [1] = target: T1, 11b-HSD1 (Mus musculus, UniProt P50172); experiment: Cellular assay, 11b-HSD1 activity in differentiated 3T3-L1 cells; format: cell-based; conditions: 4 hour pre-incubation, read-out: [C2] HSD1 cellular 3T3-L1 Score
T1 construct: Fibroblasts were differentiated into adipocytes; endogenous in cells; host or cells: differentiated 3T3-L1 cells (ATCC-CL-173)
Procedure: The effects on 11b-HSD1 activity was measured in differentiated 3T3-L1 cells and rat hepatocytes.
Mouse fibroblast 3T3-L1 cells (ATCC-CL-173) were seeded at a density of 16500 cells/ml in 12 well plates and grown for 7 days in DMEM medium (supplemented with 10% heat inactivated foetal calf serum, 2 mM glutamine and 25 mg gentamycin) at 37 C in a humidified 5% CO2 atmosphere. Medium was refreshed twice a week. Fibroblasts were differentiated into adipocytes at 37 C in a 5% CO2 humidified atmosphere in growth medium containing 2 μg/ml insulin, 55 μg/ml IBMX and 39.2 μg/ml dexamethasone.
Following a 4 hour pre-incubation with test compound, 0.5 μCi ^3H-cortisone or dehydrocorticosterone, was added to the cultures. One hour later, the medium was extracted on Extrelut^3-columns with 15 ml diethyl ether and the extract was analysed by HPLC as described above.
As for the enzymatic assays, the compounds to be tested were taken from a stock solution and tested at a final concentration ranging from […] to 3.10^−9M. From the thus obtained dose response curves, the pIC50 value was calculated and scored as follows; Score 1=pIC50 value<5, Score 2=pIC50 value in the range of 5 to 6, Score 3=pIC50 value>6. Some of the thus obtained results are summarized in the table below (in this table NT stands for Not Tested).

11b-HSD1 [2] = target: 11b-HSD1 (Homo sapiens, UniProt P28845); experiment: Enzymatic assay, 11b-HSD1 dependent conversion of cortisone into cortisol (reductase activity); format: biochemical; conditions: recombinant protein, 2 μM cortisone, 45 min at 37 C; read-out: [C1] HSD1-prot Reduct Score
Procedure: The effects of compounds on 11b-HSD1 dependent conversion of cortisone into cortisol (reductase activity) was studied in a reaction mixture containing 30 mM Tris-HCl buffer pH 7.2, 180 μM NADPH, 1 mM EDTA, 2 μM cortisone, 1 μl drug and/or solvent and 11 μg recombinant protein in a final volume of 100 μl.
All incubations were performed for 45 min at 37 C in a water bath. The reaction was stopped by adding 100 μl acetonitrile containing 20 μg corticosterone as internal standard. After centrifugation, the product formation was analysed in the supernatant by HPLC on a Hypersyl BDS-C18 column using 0.05 mM ammonium acetate/methanol (50/50) as solvent. In all of the aforementioned assays, the drugs to be tested were taken from a stock solution and tested at a final concentration ranging from […] to 3.10^−9M. From the thus obtained dose response curves, the pIC50 value was calculated and scored as follows; Score 1=pIC50 value<5, Score 2=pIC50 value in the range of 5 to 6, Score 3=pIC50 value>6. (in this table NT stands for Not Tested).

Chain of 11b-HSD1 (Homo sapiens, UniProt P28845) (P28845 whole entry): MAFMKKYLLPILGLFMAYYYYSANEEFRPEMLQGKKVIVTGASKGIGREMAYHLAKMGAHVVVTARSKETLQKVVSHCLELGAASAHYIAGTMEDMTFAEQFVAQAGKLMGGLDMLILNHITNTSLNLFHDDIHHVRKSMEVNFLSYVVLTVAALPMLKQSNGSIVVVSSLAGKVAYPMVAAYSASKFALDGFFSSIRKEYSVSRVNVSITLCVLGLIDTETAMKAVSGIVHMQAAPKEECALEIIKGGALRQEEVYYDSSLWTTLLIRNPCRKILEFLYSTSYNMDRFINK
T1 sequence (P50172 whole entry): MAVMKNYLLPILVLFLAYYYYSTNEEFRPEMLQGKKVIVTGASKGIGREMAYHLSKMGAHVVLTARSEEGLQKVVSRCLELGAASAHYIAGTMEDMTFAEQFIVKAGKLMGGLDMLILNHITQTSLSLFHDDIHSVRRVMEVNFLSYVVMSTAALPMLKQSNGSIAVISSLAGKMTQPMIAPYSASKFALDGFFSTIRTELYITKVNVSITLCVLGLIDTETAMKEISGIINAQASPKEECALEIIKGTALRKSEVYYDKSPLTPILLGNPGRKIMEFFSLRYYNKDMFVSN

| Compound | pIC50 (11b-HSD1 [1]) | pIC50 (11b-HSD1 [2]) |
| --- | --- | --- |
| C[C@@H](C[C@H]1CCN([C@@H](C)c2ccccc2)C1=O)c1ccccc1 [Compound 135] | > 6.00 | < 5.00 |
| COc1ccccc1C[C@@H]1CCN([C@H](C)c2ccccc2)C1=O [Compound 38] | 5.00 to 6.00 | < 5.00 |
| C[C@@H](c1ccccc1)N1CC[C@@H](CCc2ccccc2)C1=O [Compound 72] | 5.00 to 6.00 | < 5.00 |
| CO[C@H](C[C@H]1CCN([C@@H](C)c2ccccc2)C1=O)c1ccccc1 [Compound 157] | > 6.00 | 5.00 to 6.00 |
| COc1cc(CC2CCN(CCc3ccccc3)C2=O)ccc1OCc1ccccc1 (stereo not drawn) [Compound 109] | 5.00 to 6.00 | < 5.00 |
| C[C@@H](c1ccccc1)[C@@H]1CCN([C@@H](C)c2ccccc2)C1=O [Compound 158] | > 6.00 | > 6.00 |
| C[C@@H](c1ccccc1)N1CC[C@@H](CCc2ccc(N(C)C)cc2)C1=O [Compound 130] | 5.00 to 6.00 | < 5.00 |
| CC[C@H](C[C@H]1CCN([C@@H](C)c2ccccc2)C1=O)c1ccccc1 [Compound 140] | > 6.00 | < 5.00 |
| C[C@H](c1ccccc1)N1CC[C@@H](Cc2ccccc2C#N)C1=O [Compound 49] | > 6.00 | 5.00 to 6.00 |
| O=C1[C@@H](Cc2c(Cl)cccc2Cl)CCN1[C@H](CO)c1ccccc1 [Compound 104] | 5.00 to 6.00 | < 5.00 |
| C[C@@H](c1ccccc1)N1CC[C@@H](Cc2cccc(Cl)c2Cl)C1=O [Compound 12] | 5.00 to 6.00 | 5.00 to 6.00 |
| O=C1C(Cc2ccccc2Cl)CCN1CCCc1ccccc1 (stereo not drawn) [Compound 111] | 5.00 to 6.00 | 5.00 to 6.00 |
| COc1ccc(CC[C@@H]2CCN([C@@H](C)c3ccccc3)C2=O)cc1OC [Compound 125] | < 5.00 | < 5.00 |
| O=C1C(Cc2ccc(F)cc2Cl)CCCN1CCc1ccccc1 (stereo not drawn) [Compound 88] | 5.00 to 6.00 | 5.00 to 6.00 |
| O=C1C(Cc2c(F)cccc2F)CCN1CCc1ccccc1 (stereo not drawn) [Compound 84] | > 6.00 | 5.00 to 6.00 |
| C[C@@H](c1ccccc1)N1CC[C@@H](CCc2cccc3ccccc23)C1=O [Compound 74] | 5.00 to 6.00 | 5.00 to 6.00 |
| Cc1cccc(CC2CCN(CCc3ccccc3)C2=O)c1 (stereo not drawn) [Compound 29] | 5.00 to 6.00 | 5.00 to 6.00 |
| COc1ccc(C[C@H]2CCN([C@@H](C)c3ccccc3)C2=O)cc1 [Compound 21] | > 6.00 | 5.00 to 6.00 |
| Cc1ccccc1C[C@@]1(C)CCN([C@@H](C)c2ccccc2)C1=O [Compound 143] | 5.00 to 6.00 | < 5.00 |
| Cc1ccccc1CC1CCN(Cc2ccccc2)C1=O (stereo not drawn) [Compound 55] | 5.00 to 6.00 | < 5.00 |

| Compound | pIC50 (11b-HSD1 [1]) | pIC50 (11b-HSD1 [2]) |
| --- | --- | --- |
| COc1ccc(CC[C@@H]2CCN([C@@H](C)c3ccccc3)C2=O)cc1 [Compound 132] | 5.00 to 6.00 | 5.00 to 6.00 |
| COc1ccccc1CC1CCN(CCc2ccccc2)C1=O (stereo not drawn) [Compound 33] | > 6.00 | < 5.00 |
| C[C@H](c1ccccc1)N1CC[C@@H](Cc2cccc(Cl)c2Cl)C1=O [Compound 42] | 5.00 to 6.00 | < 5.00 |
| C[C@H](c1ccccc1)N1CC[C@H](Cc2cccc(Cl)c2)C1=O [Compound 47] | 5.00 to 6.00 | < 5.00 |
| C[C@H](C[C@@H]1CCN([C@@H](C)c2ccccc2)C1=O)c1ccccc1 [Compound 136] | 5.00 to 6.00 | 5.00 to 6.00 |
| C[C@@H](c1ccccc1)N1CC[C@H](Cc2ccc3c(c2)OCO3)C1=O [Compound 152] | > 6.00 | 5.00 to 6.00 |
| C[C@H](c1ccccc1)N1CC[C@@H](Cc2ccccc2Cl)C1=O [Compound 40] | > 6.00 | 5.00 to 6.00 |
| C[C@@H](c1ccccc1)N1CC[C@H]([C@@](C)(O)c2ccc(CCBr)cc2)C1=O [Compound 117] | > 6.00 | > 6.00 |
| CO[C@H](C[C@@H]1CCN([C@@H](C)c2ccccc2)C1=O)c1ccccc1 [Compound 156] | 5.00 to 6.00 | 5.00 to 6.00 |
| O=C1C(Cc2ccccc2)CCN1CCc1ccccc1 (stereo not drawn) [Compound 34] | 5.00 to 6.00 | < 5.00 |
| N#Cc1ccccc1CC1CCN(Cc2ccccc2)C1=O (stereo not drawn) [Compound 54] | 5.00 to 6.00 | < 5.00 |
| Cc1ccc(C[C@H]2CCN([C@H](C)c3ccccc3)C2=O)cc1 [Compound 26] | 5.00 to 6.00 | < 5.00 |
| COc1ccc(C[C@@H]2CCN([C@@H](C)c3ccccc3)C2=O)cc1 [Compound 22] | 5.00 to 6.00 | < 5.00 |
| COc1cccc(C[C@@H]2CCN([C@@H](C)c3ccccc3)C2=O)c1 [Compound 20] | < 5.00 | < 5.00 |
| Cc1ccccc1CC[C@@H]1CCN([C@@H](C)c2ccccc2)C1=O [Compound 127] | 5.00 to 6.00 | 5.00 to 6.00 |
| Cc1cccc(C[C@@H]2CCN([C@@H](C)c3ccccc3)C2=O)c1 [Compound 16] | 5.00 to 6.00 | < 5.00 |
| O=C1C(Cc2c(Cl)cccc2Cl)CCN1[C@H](Cc1ccccc1)c1ccccc1 (single isomer, unassigned) [Compound 103] | < 5.00 | < 5.00 |
| COc1ccccc1CC1CCN(Cc2ccccc2)C1=O (stereo not drawn) [Compound 60] | 5.00 to 6.00 | < 5.00 |
| O=C1C(Cc2c(Cl)cccc2Cl)CCN1[C@@H](Cc1ccccc1)c1ccccc1 (stereo partly drawn) [Compound 102] | < 5.00 | < 5.00 |
| Cc1cccc(C[C@H]2CCN([C@@H](C)c3ccccc3)C2=O)c1 [Compound 15] | 5.00 to 6.00 | 5.00 to 6.00 |

| Compound | pIC50 (11b-HSD1 [1]) | pIC50 (11b-HSD1 [2]) |
| --- | --- | --- |
| O=C1C(Cc2cc3c(cc2Cl)OCO3)CCN1CCc1ccccc1 (stereo not drawn) [Compound 86] | > 6.00 | 5.00 to 6.00 |
| O=C1[C@H](Cc2c(Cl)cccc2Cl)CCN1[C@@H](CO)c1ccccc1 [Compound 107] | < 5.00 | 5.00 to 6.00 |
| O=C1C(Cc2ccccc2)CCN1Cc1ccccc1 (stereo not drawn) [Compound 61] | 5.00 to 6.00 | < 5.00 |
| C[C@H](c1ccccc1)N1CC[C@H](Cc2ccccc2)C1=O [Compound 36] | 5.00 to 6.00 | < 5.00 |
| CC(C)(c1ccccc1)N1CCC(Cc2c(Cl)cccc2Cl)C1=O (stereo not drawn) [Compound 115] | > 6.00 | < 5.00 |
| COc1ccc(CCN2CCC(Cc3c(Cl)cccc3Cl)C2=O)cc1 (stereo not drawn) [Compound 92] | 5.00 to 6.00 | > 6.00 |
| COc1cccc(C[C@H]2CCN([C@@H](C)c3ccccc3)C2=O)c1 [Compound 19] | > 6.00 | 5.00 to 6.00 |
| C[C@@H](c1ccccc1)N1CC[C@H](Cc2cccc(Cl)c2)C1=O [Compound 17] | 5.00 to 6.00 | 5.00 to 6.00 |
| Cc1cccc(C)c1CC1CCN(CCCc2ccccc2)C1=O (stereo not drawn) [Compound 113] | 5.00 to 6.00 | 5.00 to 6.00 |
| COC[C@H](c1ccccc1)N1CC[C@@H](Cc2c(Cl)cccc2Cl)C1=O [Compound 99] | > 6.00 | > 6.00 |
| C[C@H](c1ccccc1)N1CC[C@@H](Cc2cccc(Cl)c2)C1=O [Compound 46] | < 5.00 | < 5.00 |
| O=C1C(Cc2cccc(Cl)c2Cl)CCN1Cc1ccccc1 (stereo not drawn) [Compound 58] | 5.00 to 6.00 | 5.00 to 6.00 |
| C[C@@H](c1ccccc1)N1CC[C@H](CCc2cccc3ccccc23)C1=O [Compound 75] | 5.00 to 6.00 | > 6.00 |
| O=C1C(Cc2c(Cl)cccc2Cl)CCN1CCCc1ccccc1 (stereo not drawn) [Compound 114] | > 6.00 | < 5.00 |
| O=C1C(Cc2ccc(F)cc2Cl)CCN1CCCc1ccccc1 (stereo not drawn) [Compound 112] | 5.00 to 6.00 | 5.00 to 6.00 |
| COc1ccc(CC[C@H]2CCN([C@@H](C)c3ccccc3)C2=O)cc1 [Compound 133] | 5.00 to 6.00 | < 5.00 |
| C[C@H](c1ccccc1)N1CC[C@H](Cc2cccc(Cl)c2Cl)C1=O [Compound 43] | 5.00 to 6.00 | 5.00 to 6.00 |
| COC[C@H](c1ccccc1)N1CC[C@H](Cc2c(Cl)cccc2Cl)C1=O [Compound 98] | 5.00 to 6.00 | < 5.00 |
| CC[C@@H](C[C@H]1CCN([C@@H](C)c2ccccc2)C1=O)c1ccccc1 [Compound 141] | < 5.00 | > 6.00 |
| C[C@@H](c1ccccc1)[C@H]1CCN([C@@H](C)c2ccccc2)C1=O [Compound 160] | < 5.00 | > 6.00 |
